The subject of series [1] is Salmonella typhimurium strain TA98. Description: Ames MPF test, strain TA98. In kind it is cell-based. The conditions noted are these: TA98, with and without S9, 10-250 nM. The protocol:
(§1) The Ames MPF 98/100 test (Xenometrix, Allschwil, Switzerland) was performed as recommended by the supplier and recently published. Briefly, two bacteria strains incapable of producing histidine (Salmonella typhimurium strains TA98 and TA100) were used. Liver homogenate S9 was applied to simulate the metabolic conversions of PatA and DMDA. After exposure to increasing concentrations of PatA (0, 10, 50, 250 nM), DMDA (0, 10, 50, 250 nM) or with positive controls (2 μg/mL for 2-NF (TA98), 2.5 μg/mL for 4-NQO (TA100), 63 μg/mL (TA100 with SF9) and 25 µg/mL (TA98 with SF9) for 2-AA), the cultures were diluted in pH indicator medium lacking histidine and incubated for two days. Cells that had undergone reversion to amino acid prototrophy grew into colonies and bacterial metabolism reduced the pH of the medium, changing the color of that well. Revertant colony numbers of each well were counted and related to the negative control (DMSO). The experiment was conducted once in triplicate. The Ames MPF calculation sheet provided by Xenometrix was used for data analysis. Fold induction over the baseline was calculated as the ratio of the mean number of positive wells to the baseline. The baseline was obtained by adding one standard deviation to the mean number of positive wells of the solvent control. Compounds with mutagenic potential were characterized by revertant numbers above the baseline.
In general terms: The Ames test detects mutagens through reverse mutation in bacteria.

For a further series, the system named is Calu-3 cell barrier. The series can be described thus: Transport assay, Calu-3 cell barrier. The class given is in vitro ADME. The conditions noted are these: for Permeability / transport rate across Calu-3 cell barrier (in words): 4 and 24 h, PatA, DMDA 5, 50, 100 nM, controls 200 µM. The method, then:
The transport assay was achieved as described previously. Briefly, 1 × 10^5 CaCo-2 or 5 × 10^4 Calu-3 cells in 300 µL medium were seeded on 24-well ThinCerts (pre-coated with FCS for 60 min) and in the lower compartment, 1 mL culture medium per well was added. The Caco-2 cell barrier was generated over 20 days and the Calu-3 barrier was generated over 14 days. DMDA (0 nM, 5 nM, 50 nM, 100 nM), PatA (0 nM, 5 nM, 50 nM, 100 nM), 200 µM famotidine, 200 µM lucifer yellow or 200 µM carbamazepine diluted in medium was added to the apical compartment and incubated for 4 h or 24 h. The medium from the basolateral and apical compartment was collected and stored at −20 °C and analyzed using LC-MS/MS. To obtain the transport rate, the drug amount in the basolateral compartment at 4 h or 24 h was related to the drug amount in the apical compartment (0 h).
The detailed method for the analysis of DMDA, PatA, carbamazepine and famotidine using LC-MS/MS is described in the Supplementary Materials.

A further series concerns Human primary B cells. Description: B cell activation with IL-21, sCD40L, CpG and anti-IgM. In kind it is cell-based. The conditions noted are these: for B cell activation (formation of plasma cells, proliferation, release of IgGs) / Cell viability (zombie staining): activated B cells, 5 days; for Effect on the release of inflammatory markers, B Cells: summary table. The method, then: B cells were activated as described by Khoenkhoen et al.. […].
Surface marker analysis was performed as described previously. Briefly, 1.5–2 × 10^5 cells of each sample were blocked with human FcR Blocking Reagent (15 min, 4 °C). […]. Afterwards, samples were stained with a mixture of different surface marker antibodies (15 min, 4 °C) and measured with MACSQuant® Analyzer 10 flow cytometer. For M1-/M2-MdMs anti-CD86, anti-CD14, anti-HLA-DR, anti-CD206, anti-CD80, anti-TREM2 and anti-CD163 were used. For T cells, anti-CD69, anti-CD54, anti-CD49a, anti-CD18, anti-CD134, anti-CD154, anti-CD3 and anti-CD25 were analyzed. For B cells, anti-CD27, anti-CD19 and anti-CD38 were applied. For T cell and B cell proliferation assay, freshly isolated T and B cells were stained with CTV and detected using flow cytometry. Naïve B cells were characterized as CD19^+CD27^lowCD38^med, memory B cells as CD19^+CD27^med CD38^low and plasma cells as CD27^+CD38^+ cells. M1 MdMs and M2 MdMs cell population was gated using FSC/SSC channel. T cells were gated as CD3^+CD25^+ positive cells. The geometric mean of the fluorescent intensity was calculated using FlowJo software v10 (Treestar, Ashland, […], USA). Fold induction of surface marker expression was calculated using the DMSO-treated cells as the control.
For determination of cytokine concentrations in the supernatant of humane immune cells, cytometric bead array (BD Biosciences, Heidelberg, Germany) for IL-10, IL-17, IL-8, IL-6, IFN-γ and CCL2 was used. For the detection of CCL18, CCL17, IgG, IgA and PGE2, an ELISA was performed. The cytometric bead arrays and the ELISAs were performed according to the protocol of the supplier.

Series [2] deals with Salmonella typhimurium strain TA100. The series can be described thus: Ames MPF test, strain TA100. The class given is cell-based. The conditions noted are these: TA100, with and without S9, 10-250 nM. The method, then: as §1

Turning to `CC(/C=C/C(C)=C/[C@@H]1Cc2nc(cs2)CCCCC(=O)O[C@@H](C)C/C(C)=C/C=C\C(=O)O1)=C\CN(C)C` [DMDA, des-methyl des-amino pateamine A], in series [1], the “Mutagenic potential (Ames test)” value is “negative in all Ames mutagenic assays”. Further, in the series with Calu-3 cell barrier (100 nM, 24 h), the “Transport rate with Calu-3 cell barrier” value is approximately 14%. The “Permeability / transport rate across Calu-3 cell barrier (in words)” value with Calu-3 cell barrier was “exhibited low permeability”. Also, in the series on Human primary B cells, the “B cell activation (formation of plasma cells, proliferation, release of IgGs)” value is given as “did not prevent B cell activation”; the “Cell viability (zombie staining)” value is “did not reduce cell viability”; the “Effect on the release of inflammatory markers, B Cells” value is reported as “No effect”. The “Mutagenic potential (Ames test)” value in series [2] is recorded as “negative in all Ames mutagenic assays”.
In the case of `CC(/C=C/C(C)=C/[C@@H]1Cc2nc(cs2)[C@@H](C)C[C@@H](N)CC(=O)O[C@@H](C)C/C(C)=C/C=C\C(=O)O1)=C\CN(C)C` [PatA, pateamine A], in series [1], the “Mutagenic potential (Ames test)” value was “negative in all Ames mutagenic assays”. In addition, in the series on Calu-3 cell barrier, the “Permeability / transport rate across Calu-3 cell barrier (in words)” value is listed as “no permeability was detected”. For the same compound, in the series with Human primary B cells, the “Cell viability (zombie staining)” value is reported as “did not reduce cell viability” and the “Effect on the release of inflammatory markers, B Cells” value is given as “IgA↓, IgG↓”. For the same compound, the “B cell activation (formation of plasma cells, proliferation, release of IgGs)” value in the series with Human primary B cells (0.5 nM) was “showed similar effects to those of rapamycin”. In addition, the “Mutagenic potential (Ames test)” value in series [2] is reported as “negative in all Ames mutagenic assays”.

The values above are taken from PMC11546719, “Immune Modulatory Profile of the Pateamines PatA and Des-Methyl Des-Amino PatA” (International Journal of Molecular Sciences, 2024).
